{"source": "patent US20220233503A1", "about": "“METHODS OF TREATING SEPSIS WITH SYNAPTIC VESICLE 2A AND/OR 2B BINDING CHEMICAL ENTITIES” (INSTITUT PASTEUR, priority 2016, published 2022)", "key": {"CLP mice [1]": {"test_system": "CLP mice", "assay": "Survival after cecal ligature and puncture (CLP) sepsis", "assay_type": "in vivo, C57Bl/6 mice", "details": "300 mg/Kg intraperitoneously, within the first four days, placebo 53%, n=212, p<0.001", "description": "Cecal ligature and puncture: Cecal ligature and puncture on mice were performed under general anesthesia. Briefly, C57Bl/6 mice were anesthetized with an intraperitoneal injection of Xylazine (20 mg/Kg, Rompun 2%, Bayer, Leverkusen, Germany), and Ketamine (100 mg/Kg, Imalgene, Mérial, Lyon, France) in 100 μl of saline solution at 0.9%. After anesthetic administration, mice were placed in a heated cage or surgical table upon awakening to maintain a body temperature at 37° C. Absence of reaction to leg and tail pinch were checked before incision of abdominal wall and peritoneum. Caecum was found with wet cotton swabs and exposed before loose ligation with Mersilk 4.0 (Ethicon, Cincinatti, USA), 2 transfixiant punctures were realized avoiding blood vessels with a 21G needle. Feces were expressed between cotton swabs before suturing abdominal muscles and peritoneum in 2 separate plans.\nAnalgesia and rehydration of mice were performed with buprenorphine (0.1 mg/Kg, Buprecare, Axience, Pantin, France) every 12 hours until complete recovery. […] Clinical scoring: Sepsis severity was evaluated twice a day until day 4, or normalization of «sepsis score», a previously described score that ranges from 1 to 12. […] Each item was scored 0 or 1, with a total score rang from 0 (normal) to 12 (highly severe). […]"}, "CLP mice [2]": {"test_system": "CLP mice", "assay": "Splash test after sepsis", "assay_type": "in vivo", "details": "levetiracetam vs placebo treated CLP mice", "description": "Splash test: Mice were placed in a new cage 45 minutes before testing in the experimental room. They were then held onto a grid and 200 μl of sucrose 10% solution was spray on their back's fur. They were then placed in the home cage for 5 minutes. The latency before the first time mice groomed, the number of cleaning sessions and the total amount of time spent cleaning during the 5 minute test were measured. Mice were then placed back in their cage. Datas are presented as Mean±SEM.\nFIG. 2: Innate anxiety behavior and depressive phenotype was investigated with the elevated plus maze and splash test."}, "[3]": {"test_system": "peripheral nervous system", "details": "septic rats, single dose of 300, 600 or 1200 mg/kg one hour after surgery; cited from earlier work"}}}
{"smiles": "CC[C@@H](C(N)=O)N1CCCC1=O", "note": "(single isomer, unassigned) [levetiracetam]", "values": [{"measurement": "survival rate", "setting": "CLP mice [1]", "result": 81, "unit": "%"}, {"measurement": "depressive phenotype (splash test)", "setting": "CLP mice [2]", "result": "No difference"}, {"measurement": "effects on the peripheral nervous system", "setting": "[3]", "result": "broad spectrum of protective and restorative effects"}]}
